Source: patent US20250011881A1, “MYC-HSF1 DUAL AMPLIFICATION AS A BIOMARKER FOR CANCER TREATMENT” (The Trustees of Indiana University, priority 2023, published 2025)
“And” between values parts separate entries of the source, which are not always exact repeats. Equal values may be shown once. Where a name gives a salt, the structure may show the parent alone. Read-outs that look alike come from different tables or passages of the source.

What was measured:
[1] = system: MYC-HSF1 dual amplified cells (OVCAR8, OVCAR4, SNU119); test: Clonogenic growth assay; assay type: cell-based; conditions: 7 days, crystal violet
Procedure: FIG. 5A depicts bar graphs showing clonogenic growth observed for OVCAR8, OVCAR4 and SNU119 cell lines subjected to the indicated dose of volasertib (BI-6727). Control cells were subjected to 1% DMSO instead of volasertib. Colonies were grown for 7 days prior to staining with crystal violet and quantification was completed with FIJI software.
(§1) The effectiveness of volasertib on MYC-HSF1 dual amplified cancer cells was also analyzed in several cell growth models. […] Cell viability assays were performed with Cell Titer Blue (Promega) as we previously described (Carpenter et al. Oncotarget 2017;8:73947-63). Clonogenic growth assays were performed by seeding <1000 cells into 6-well plates and staining with crystal violet after 7 days of growth. Colonies were quantified using FIJI.

[2] = system: cell lines without dual amplification (OVSAHO, CAOV3, PEO1, OVCAR3); test: Volasertib IC50, cell viability, non-amplified cell lines; assay type: cell-based; conditions: average of OVSAHO, read-out: IC50 in non-amplified cells
Procedure: (§2) PLK1 is an active therapeutic target with several compounds targeting this kinase inPLK1 inhibitor that has shown promise as an effective cancer therapy in early phase clinical trials (Rudolph et al. Clin Cancer Res 2009; 15:3094-102;Pujade-Lauraine et al. J Clin Oncol 2016;34:706-13; Xie et al. Am J Cancer Res 2015;5:3548-59). […] To assess whether a PLK1 inhibitor has specificity for MYC-HSFIdual-amplified ovarian cancer cells, the IC50 for volasertib was assessed in cell lines with dual amplification (OVCAR8, SNU119, OVCAR4, and COV362) and in cell lines without dual amplification (OVSAHO, CAOV3, PEO1, OVCAR3).
as §1

[3] = system: OVCAR8 (MYC-HSF1 co-amplified) cells; test: Tumor spheroid growth, co-amplified cells; assay type: cell-based; conditions: OVCAR8, 7 days
Procedure: FIG. 5B and FIG. 5C represent OVCAR8 (MYC-HSF1 co-amplified) and CAOV3 (non-amplified) cells subjected to tumor spheroid growth in the presence or absence of volasertib at the indicated doses. Spheroids were quantified by manual counting. The impact volasertib on spheroid growth in the two different cell lines is shown photographically (FIG. 5B) and graphically (FIG. 5C).
Ovarian cancer cells (1000-2000) were seeded into 24-well ultra-low attachment plates (Corning) and grown in serum-free spheroid media as we previously described (Wang et al., Mol Cancer Ther 2021). Spheroids were grown in the presence or absence of volasertib for 7 days. Spheroids were quantified by manual counting.

[4] = Body weight of tumor-bearing nude mice; assay type: in vivo; conditions: 15 or 20 mg/kg twice per week for five weeks
Procedure: (§3) FIG. 5D represents OVCAR8 cells (5e5) grown in the flank of nude mice until a volume between 50-100 mm^3 were achieved. Mice were then randomized to receive either vehicle, 15mg/kg, or 20 mg/kg volasertib twice per week. Tumor volume was measured with calipers (FIG. 5D) and body weight was measured (FIG. 5E) throughout the study.
(§4) Lastly, we evaluated the efficacy of the PLK1 inhibitor, volasertib, on tumor growth in vivo. OVCAR8 cells (5e5) were injected into the flank of nude mice and tumors were allowed to develop until 50-100 mm^3. Mice then received either vehicle (PBS) or 15 or 20 mg/kg volasertib twice per week for five weeks. Body weight and tumor volume were measured twice per week.

[5] = system: MYC and HSF1 protein in OVCAR8 cells; test: Immunoblot time course of MYC and HSF1 protein after volasertib; assay type: cell-based; conditions: OVCAR8, volasertib 1 nM, 0 to 18 hours
Procedure: (§5) Considering PLK1 phosphorylation previously indicated affects the protein stability of MYC and HSF1, it was tested whether volasertib affects MYC or HSF1 protein levels. A time course study was performed where samples were treated with volasertib for time ranges of 0 to 18hours. […] Similarly, the effect of volasertib was tested on the activity of HSF1 using an HSE luciferase reporter.
Immunoblotting and Immunoprecipitation: Immunoblotting and co-immunoprecipitation was performed as we have previously described (Lu et al., bioRxiv 2020:2020.08.31.275909). Antibodies for immunoblotting and immunoprecipitation included MYC (CST), HSF1 (CST), β-actin (CST), GAPDH (CST), FLAG (Sigma), and p-HSF1 (S326) (Abcam).

[6] = system: ovarian cancer patients; conditions: cited from earlier work
[7] = system: OVCAR8 cells in the flank of nude mice; test: OVCAR8 flank tumor growth in nude mice; assay type: in vivo; conditions: 15 or 20 mg/kg twice per week for five weeks
Procedure: as §3, §4

[8] = system: HSF1 activity in OVCAR8 cells; test: HSE luciferase reporter assay; assay type: cell-based; conditions: OVCAR8, volasertib 1 nM, increasing time of treatment
Procedure: FIG. 4E is a bar graph representing OVCAR8 cells subjected to HSE luciferase assay with treatment of volasertib (1 nM) for the indicated times.
as §5
Luciferase Reporter Assays: Luciferase reporter assays were performed as we previously described (Lu et al. bioRxiv 2020:2020.08.31.275909). The HSF1 activity reporter contains multiple heat shock element (HSE) motifs driving firefly luciferase. Experiments were performed with co-transfection of a constitutively active renilla reporter. Analysis was completed by dividing firefly activity by renilla activity.

[9] = system: cell lines with dual amplification (OVCAR8, SNU119, OVCAR4, and COV362); test: Volasertib IC50, cell viability, MYC-HSF1 dual amplified cell lines; assay type: cell-based
Procedure: as §2, §1

[10] = system: ovarian cancer cells with (OVCAR8, OVCAR4) or without (OVSAHO, CAOV3) MYC-HSF1 amplification; test: Epigenetic inhibitor drug screen, cell viability (Cell Titer Blue); assay type: cell-based
[11] = single agent, ovarian cancer patients
[12] = 10 uM, 48 hrs, average relative cell viability (vs 1% DMSO) of non-amplified cells (OVSAHO, CAOV3) minus that of MYC-HSF1 amplified cells (OVCAR8, OVCAR4), positive = greater response in amplified cells
[13] = 10 uM, 48 hrs, average relative cell viability (vs 1% DMSO) of non-amplified cells (OVSAHO, CAOV3) minus that of MYC-HSF1 amplified cells (OVCAR8, OVCAR4), positive = greater response in amplified cells, 10 µM

| Compound | Non Amp - AMP (POC) 10 uM [10, 12] [POC] | further results |
| --- | --- | --- |
| CC[C@@H]1C(=O)N(C)c2cnc(Nc3ccc(C(=O)N[C@H]4CC[C@H](N5CCN(CC6CC6)CC5)CC4)cc3OC)nc2N1C(C)C [volasertib] |  | clonogenic growth [1]: strong inhibition of clonogenic growth; IC50 [2]: 7.8 µM; spheroid growth, MYC-HSF1 dual amplified cells [3]: inhibit spheroid growth; body weight [4]: no change in body weight; MYC and HSF1 protein levels [5]: loss of MYC and HSF1 protein after 3hours of volasertib exposure; toxicity and safety for use in humans ([6]; early phase clinical trials): favorable toxicity and safety; 24-week disease control rate [6, 11]: 30%; patients with partial responses [6, 11]: 13%; patients with progression-free survival for more than one year ([6]; single agent, none in patients receiving cytotoxic chemotherapy): 11%; tumor growth in vivo [7]: strongly regress tumor growth; HSF1 activity (HSE luciferase reporter) [8]: increasing inhibition of HSF1 activity; IC50 ([9]; average of OVCAR8, SNU119, OVCAR4, COV362, read-out: IC50 for volasertib in MYC-HSF1 dual amplified cells): 0.033 µM; fold difference of IC50, non-amplified vs MYC-HSF1 dual amplified cells ([9]; enhanced efficacy in dual amplified ovarian cancer cells): > 200 fold and 200 fold |
| CC(=O)SCC(=O)c1ccc(NS(=O)(=O)c2ccc(OCCCN(C)C)cc2)nc1 [KD 5170] | 12.43 |  |
| C[C@H](NC(=O)CCc1nc2ccccc2c(=O)[nH]1)c1ccccc1 [ME0328] | 15.81 |  |
| N#CC[C@H](C1CCCC1)n1cc(-c2ncnc3[nH]ccc23)cn1 [Ruxolitinib (INCB018424), Ruxolitinib] |  | Non Amp - AMP (POC) 10 uM [10, 13]: −4.311 POC |
| (−)-Epigallocatechin gallate [(−)-Epigallocatechin gallate (EGCG)] |  | Non Amp - AMP (POC) 10 uM [10]: 4.98 POC |
| Cl.NC(=O)[C@H](CCCN=C(N)CCl)NC(=O)c1ccccc1 [CI-Amidine (hydrochloride), CI-Amidine] | 5.451 |  |
| COc1ccc2c(c[n+](C)c3c4cc5c(cc4ccc23)OCO5)c1OC [Chelerythrine] |  | Non Amp - AMP (POC) 10 uM [10, 13]: −18.62 POC |
| NC(=O)c1ncn([C@@H]2O[C@H](CO)[C@@H](O)[C@H]2O)c1N [AICAR] |  | Non Amp - AMP (POC) 10 uM [10]: 11.27 POC |
| CN(C)c1ccc(-c2nc3ncc(Cl)c(N4CCN(CC(=O)Nc5nccs5)CC4)c3[nH]2)cc1 [CCT129202] | 2.662 |  |
| O=C(Nn1nnc2ccccc21)c1ccc(Cl)cc1Cl [ITSA-1 (ITSA1)] | 7.283 |  |
| CN1CCc2c(c3ccccc3n2Cc2ccc(C(=O)NO)cc2)C1.Cl [Tubastatin A HCl] | 19.35 |  |
| O=c1[nH]cnc2c1ncn2[C@@H]1O[C@H](CO)[C@@H](O)[C@H]1O [INO-1001] | −1.319 |  |
| O=C(O)CCNc1cc(N2CCc3ccccc3CC2)nc(-c2cccnc2)n1 [GSK J2] | 0.5701 |  |
| Cn1cc(-c2ccc(S(=O)(=O)n3ccc(/C=C/C(=O)Nc4ccccc4N)c3)cc2)cn1 [4SC-202] | 15.57 |  |
| C[C@@H]1O[C@@H](CC(=O)O)CC2=C1C(=O)c1c(O)cccc1C2=O [Nanaomycin A] | 2.594 |  |
| C[C@@H]1CC(=O)Nc2cccc(-c3ccc4c(c3)c(-c3cnn(C)c3)nn4C)c2N1 [CPI-637] | −2.546 |  |

| Compound | Non Amp - AMP (POC) 10 uM [10, 12] [POC] | further results |
| --- | --- | --- |
| O=c1ccc2ccccc2o1 [Coumarin] | 5.809 |  |
| N#Cc1ccc(OC2CCC(NC(=O)CCSc3nc4ccccc4c(=O)[nH]3)CC2)cc1 (centres unmarked) [Tankyrase Inhibitors (TNKS) 49] | −7.406 |  |
| O=C(Nc1ccc2c(O)cc(S(=O)(=O)O)cc2c1)Nc1ccc2c(O)cc(S(=O)(=O)O)cc2c1 [AMI-1] |  | Non Amp - AMP (POC) 10 uM [10, 13]: 19.64 POC and 18.34 POC |
| COc1ccc2c(c[n+](C)c3c4cc5c(cc4ccc23)OCO5)c1OC [Chelerythrine Chloride] |  | Non Amp - AMP (POC) 10 uM [10, 13]: −21.5 POC |
| CC(C)c1ccc(-c2cc(=O)c3ccccc3o2)cc1 [MN 64] | −7.835 |  |
| CCOC(=O)NNc1nncc2ccccc12 [Todralazine (hydrochloride), Todralazine] | 13.07 |  |
| COc1cc2ncnc(Nc3ccc(O)c(Br)c3)c2cc1OC [WHI-P154] | −1.78 |  |
| CCCCCCCCCCCCC/C=C/[C@@H](O)[C@@H](N)CO [D-erythro-Sphingosine (synthetic), D-erythro-Sphingosine] |  | Non Amp - AMP (POC) 10 uM [10]: 2.713 POC |
| Oc1ccc(C=Cc2cc(O)cc(O)c2)cc1 [Resveratrol] | 0.9482 |  |
| CN(C)Cc1ccc(S(=O)(=O)n2ccc(/C=C/C(=O)NO)c2)cc1 [Resminostat (hydrochloride), Resminostat] | 36.33 |  |
| Cc1ccc(NC(=O)CCCCCC(=O)Nc2ccccc2N)cc1 [TC-H 106] | 8.223 |  |
| CCOC(=O)Nc1cc(-c2ccc(C)c(NS(C)(=O)=O)c2)nn2c(C)nnc12 [Bromosporine] |  | Non Amp - AMP (POC) 10 uM [10, 13]: 15.35 POC and 21.43 POC |
| COc1cc(-c2cn(C)c(=O)c3cnccc23)cc(OC)c1CN(C)C [BI-7273] | −8.336 |  |
| C[C@]1(c2nc3c(C(N)=O)cccc3[nH]2)CCCN1 [Veliparib dihydrochloride] |  | Non Amp - AMP (POC) 10 uM ([10]; 10 uM, 48 hrs, average relative cell viability (vs 1% DMSO) of non-amplified cells (OVSAHO, CAOV3) minus that of MYC-HSF1 amplified cells (OVCAR8, OVCAR4), positive = greater response in amplified cells, dihydrochloride, 10 µM): −2.841 POC |
| CC[C@@](C)(Nc1ccnc(-c2c[nH]c3ncccc23)n1)C(=O)NCC(F)(F)F [Decernotinib(VX-509), Decernotinib] | 7.322 |  |
| O=C(c1ccc(/C=C/c2n[nH]c3ccccc23)cc1)N1CCNCC1 [KW 2449] | 6.231 |  |
